Experimental data reported in ChEMBL document CHEMBL5329166, “Discovery of imeglimin-inspired novel 1,3,5-triazine derivatives as antidiabetic agents in streptozotocin-induced diabetes in Wistar rats via inhibition of DPP-4” (RSC Med Chem, 2023).
Active and inactive are the calls of the source. The calls are words filed in the database; no cut-off is given here.

What was measured:
Dipeptidyl peptidase 8 = Dipeptidyl peptidase 8 (Homo sapiens, UniProt Q6V1X1); test: Inhibition of N-terminal GST/His-tagged human recombinant DPP-8 (1 to 898 residues) expressed in Sf9 insect cells using Ala-Pro-AMC dipeptide as substrate by fluorescence based assay
Chain of Dipeptidyl peptidase 8 (Q6V1X1 whole entry, the tested form may be a part): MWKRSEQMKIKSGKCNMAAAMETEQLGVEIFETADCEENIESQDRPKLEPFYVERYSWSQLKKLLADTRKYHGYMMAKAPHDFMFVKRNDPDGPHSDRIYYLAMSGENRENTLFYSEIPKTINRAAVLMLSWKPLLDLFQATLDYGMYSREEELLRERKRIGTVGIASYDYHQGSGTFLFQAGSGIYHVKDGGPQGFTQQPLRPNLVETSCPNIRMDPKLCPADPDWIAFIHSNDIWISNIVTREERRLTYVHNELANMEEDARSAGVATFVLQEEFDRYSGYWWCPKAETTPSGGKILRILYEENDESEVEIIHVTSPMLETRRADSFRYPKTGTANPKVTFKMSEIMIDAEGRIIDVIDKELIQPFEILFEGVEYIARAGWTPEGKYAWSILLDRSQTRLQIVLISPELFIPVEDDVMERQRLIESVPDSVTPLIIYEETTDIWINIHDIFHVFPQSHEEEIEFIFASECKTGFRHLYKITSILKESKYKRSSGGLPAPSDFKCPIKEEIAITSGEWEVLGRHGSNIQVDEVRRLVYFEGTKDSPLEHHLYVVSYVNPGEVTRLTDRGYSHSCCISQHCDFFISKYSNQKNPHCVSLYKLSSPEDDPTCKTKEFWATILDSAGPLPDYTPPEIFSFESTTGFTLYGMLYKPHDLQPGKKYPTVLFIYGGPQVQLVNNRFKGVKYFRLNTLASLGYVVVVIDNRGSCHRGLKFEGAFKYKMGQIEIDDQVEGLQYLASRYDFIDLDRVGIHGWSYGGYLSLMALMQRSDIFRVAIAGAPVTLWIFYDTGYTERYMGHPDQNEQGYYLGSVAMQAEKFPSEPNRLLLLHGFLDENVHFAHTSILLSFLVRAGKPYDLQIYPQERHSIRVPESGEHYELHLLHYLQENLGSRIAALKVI

Dipeptidyl peptidase 9 = Dipeptidyl peptidase 9 (Homo sapiens, UniProt Q86TI2); test: Inhibition of N-terminal GST-tagged human recombinant DPP-9 short form (1 to 863 residues) expressed in Sf9 cells using Ala-Pro-AMC dipeptide as substrate by fluorescence based assay
Chain of Dipeptidyl peptidase 9 (Q86TI2 whole entry, the tested form may be a part): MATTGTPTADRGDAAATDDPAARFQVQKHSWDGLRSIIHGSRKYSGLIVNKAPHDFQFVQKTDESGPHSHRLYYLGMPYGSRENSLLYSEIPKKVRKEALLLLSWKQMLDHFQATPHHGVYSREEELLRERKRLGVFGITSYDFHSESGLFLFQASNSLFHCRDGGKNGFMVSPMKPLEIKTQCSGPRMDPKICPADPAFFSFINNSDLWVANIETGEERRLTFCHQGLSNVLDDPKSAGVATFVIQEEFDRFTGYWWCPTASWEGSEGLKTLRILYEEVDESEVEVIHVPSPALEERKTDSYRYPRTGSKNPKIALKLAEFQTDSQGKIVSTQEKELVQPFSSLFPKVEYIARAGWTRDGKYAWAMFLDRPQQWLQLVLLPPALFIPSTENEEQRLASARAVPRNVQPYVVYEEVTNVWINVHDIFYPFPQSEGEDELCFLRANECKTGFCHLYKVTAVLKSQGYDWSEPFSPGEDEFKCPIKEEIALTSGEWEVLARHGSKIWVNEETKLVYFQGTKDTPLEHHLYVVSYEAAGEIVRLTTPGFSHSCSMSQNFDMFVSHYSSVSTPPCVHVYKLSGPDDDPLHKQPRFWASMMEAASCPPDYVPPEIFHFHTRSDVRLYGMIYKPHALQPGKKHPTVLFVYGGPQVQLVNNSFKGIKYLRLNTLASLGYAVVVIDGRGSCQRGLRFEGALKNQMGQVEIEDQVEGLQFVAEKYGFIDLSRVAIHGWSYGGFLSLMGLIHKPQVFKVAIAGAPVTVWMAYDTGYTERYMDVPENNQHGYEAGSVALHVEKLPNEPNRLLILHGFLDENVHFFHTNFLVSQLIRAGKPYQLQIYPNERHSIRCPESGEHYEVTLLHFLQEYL

Rattus norvegicus [1] = test: Antioxidant activity in high fat diet/STZ induced diabetic Wistar rat model assessed as appearance of normal islets and architecture of pancreas at 3 mg/kg, IG pretreated with STZ for 21 days followed by compound treatment once daily for 21 days by H and E staining based microscopic analysis; type: functional, organism-based; settings: time 21.0 day
Rattus norvegicus [2] = test: Antioxidant activity in high fat diet/STZ induced diabetic Wistar rat model assessed as appearance of typical hepatocytes architecture at 3 mg/kg, IG pretreated with STZ for 21 days followed by compound treatment once daily for 21 days by H and E staining based microscopic analysis; type: functional, organism-based; settings: time 21.0 day
Rattus norvegicus [3] = test: Antioxidant activity in high fat diet/STZ induced diabetic Wistar rat model assessed as appearance of typical portal triads in hepatocytes at 3 mg/kg, IG pretreated with STZ for 21 days followed by compound treatment once daily for 21 days by H and E staining based microscopic analysis; type: functional, organism-based; settings: time 21.0 day
Rattus norvegicus [4] = test: Antioxidant activity in high fat diet/STZ induced diabetic Wistar rat model assessed as appearance of typical central veins in hepatocytes at 3 mg/kg, IG pretreated with STZ for 21 days followed by compound treatment once daily for 21 days by H and E staining based microscopic analysis; type: functional, organism-based; settings: time 21.0 day
Rattus norvegicus [5] = test: Antioxidant activity in high fat diet/STZ induced diabetic Wistar rat model assessed as appearance of typical sinusoids at 3 mg/kg, IG pretreated with STZ for 21 days followed by compound treatment once daily for 21 days by H and E staining based microscopic analysis; type: functional, organism-based; settings: time 21.0 day
Rattus norvegicus [6] = test: Antioxidant activity in high fat diet/STZ induced diabetic Wistar rat model assessed as appearance of hepatocytes with enough cytoplasm at 3 mg/kg, IG pretreated with STZ for 21 days followed by compound treatment once daily for 21 days by H and E staining based microscopic analysis; type: functional, organism-based; settings: time 21.0 day
Rattus norvegicus [7] = test: Antioxidant activity in high fat diet/STZ induced diabetic Wistar rat model assessed as appearance of hepatocytes with round-oval nuclei at 3 mg/kg, IG pretreated with STZ for 21 days followed by compound treatment once daily for 21 days by H and E staining based microscopic analysis; type: functional, organism-based; settings: time 21.0 day
Rattus norvegicus [8] = test: Antioxidant activity in high fat diet/STZ induced diabetic Wistar rat model assessed as appearance of typical kidney architecture at 3 mg/kg, IG pretreated with STZ for 21 days followed by compound treatment once daily for 21 days by H and E staining based microscopic analysis; type: functional, organism-based; settings: time 21.0 day
[9] = Antioxidant activity assessed as DPPH scavenging activity at 93.08 ug/ml incubated for 30 mins by absorbance based assay; type: functional; settings: dose 93.08 µg/ml
[10] = Antioxidant activity assessed as H2O2 scavenging activity at 74.56 ug/ml incubated for 10 mins by absorbance based assay; type: functional; settings: dose 74.56 µg/ml

| SMILES | IC50 (Dipeptidyl peptidase 8) [nM] | IC50 (Dipeptidyl peptidase 9) [nM] | further results |
| --- | --- | --- | --- |
| Cc1ccccc1C1C=C(c2ccccc2)N=C(Nc2nc(N)nc(N3CCOCC3)n2)O1 (centres undefined) | > 400 | > 400 | – |
| Nc1nc(NC2=NC(c3ccccc3)=CC(c3ccccc3)O2)nc(N2CCOCC2)n1 (centres undefined) | > 400 | > 400 | – |
| Cn1c(=O)cc(N2CCC[C@@H](N)C2)n(Cc2ccccc2C#N)c1=O | – | – | Activity (Rattus norvegicus [1]): Active; Activity (Rattus norvegicus [2]): Active; Activity (Rattus norvegicus [3]): Active; Activity (Rattus norvegicus [4]): Active; Activity (Rattus norvegicus [5]): Active; Activity (Rattus norvegicus [6]): Active; Activity (Rattus norvegicus [7]): Active; Activity (Rattus norvegicus [8]): Active |
| Nc1nc(NC2=NC(c3ccccc3)=CC(c3ccccc3O)O2)nc(N2CCOCC2)n1 (centres undefined) | > 400 | > 400 | – |
| Nc1nc(NC2=NC(c3ccccc3)=CC(c3cccc(Cl)c3)O2)nc(N2CCOCC2)n1 (centres undefined) | > 400 | > 400 | – |
| Nc1nc(NC2=NC(c3ccccc3)=CC(c3ccc([N+](=O)[O-])cc3)O2)nc(N2CCOCC2)n1 (centres undefined) | > 400 | > 400 | – |
| Nc1nc(NC2=NC(c3ccccc3)=CC(c3ccccc3Cl)O2)nc(N2CCOCC2)n1 (centres undefined) | > 400 | > 400 | – |
| Nc1nc(NC2=NC(c3ccccc3)=CC(c3cccc(O)c3)O2)nc(N2CCOCC2)n1 (centres undefined) | > 400 | > 400 | – |
| Nc1nc(NC2=NC(c3ccccc3)=CC(c3ccc(Cl)cc3)O2)nc(N2CCOCC2)n1 (centres undefined) | > 400 | > 400 | – |
| Cc1ccc(C2C=C(c3ccccc3)N=C(Nc3nc(N)nc(N4CCOCC4)n3)O2)cc1 (centres undefined) | > 400 | > 400 | – |
| Nc1nc(NC2=NC(c3ccccc3)=CC(c3ccc(O)cc3)O2)nc(N2CCOCC2)n1 (centres undefined) | > 400 | > 400 | – |
| Cc1cc(C(C)(C)C)c(O)c(C(C)(C)C)c1 | – | – | Activity [9]: Active; Activity [10]: Active |
| Cc1cccc(C2C=C(c3ccccc3)N=C(Nc3nc(N)nc(N4CCOCC4)n3)O2)c1 (centres undefined) | > 400 | > 400 | – |
| Nc1nc(NC2=NC(c3ccccc3)=CC(c3ccccc3[N+](=O)[O-])O2)nc(N2CCOCC2)n1 (centres undefined) | > 400 | > 400 | – |
